The values below come from patent publication US20030105165A1, “Gap junctions and EDHF” (priority 2001, published 2003).

In one experiment the test system is rabbit arteries. Particulars: endothelium-, gap junction- and cAMP-dependent; cited from earlier work.
For experiment [1], the system named is sandwich preparations of rabbit iliac artery. As to the kind of experiment: 'Sandwich' bioassay preparations of iliac artery (endothelium-intact donor ring, denuded detector strip). The experiment is classed as cell-based. The source says:
‘Sandwich’ preparations. Rings of iliac artery 2-3 mm wide were denuded of endothelium, cut into strips and pierced ˜2 mm from each end using a Monoject needle (0.9 mm×40 mm). These strips were introduced into the lumen of rings of endothelium-intact iliac artery 4-5 mm wide and the tissues sutured together. Composite preparations were then mounted in a Mulvany Multi Myograph (Danish Myo Technology) with the pierced denuded strips hooked onto the large vessel mountings. Tension was initially set at ˜0.25 g and readjusted during an equilibrium period of 1 h. The preparations were then incubated for 40 min with L-NAME (300 μM) and indomethacin (10 μM), constricted with PE (1 or 3 μM), and concentration-response curves constructed for ACh in the presence/absence of IBMX (20 μM), or A23187 in the presence/absence of IBMX (20 μM) or 2′5′DDA (200 μM).
(§1) Statistical Analysis All data are given as mean±SEM, where n denotes the number of animals studied for each data point, and were compared by the Student's t-test for paired or unpaired data as appropriate. P<0.05 was considered as significant. Concentration-response curves were assessed by one-way analysis of variance (ANOVA) followed by the Bonferroni multiple comparisons test.

The subject of another experiment is cGMP levels. The experiment in a line: Radioimmunoassay of cGMP in iliac artery rings. The class given is cell-based, rabbit. Particulars: in the presence of L-NAME and indomethacin. The procedure:
(§2) Radioimmunoassay. Multiple rings from the same artery were incubated in oxygenated Holmans buffer containing L-NAME (300 μM) and indomethacin (10 μM) for 40 min at 37° C. in the presence or absence of 18α-GA (100 μM). Rings were frozen in liquid N2 at time points up to 180 s following addition of ACh or A23187 and stored at −70° C. before extraction of cAMP or cGMP in 6% trichloroacetic acid, followed by neutralization with water saturated diethyl ether and subsequent radioimmunoassay (Amersham UK). PE (1 μM) was added 3 min before the initial control point and control experiments were performed with endothelium-denuded rings. Nucleotide levels were expressed relative to protein content (27).

In experiment [2] the test system is rabbit iliac artery rings. As to the kind of experiment: EDHF-type relaxation of isolated rabbit iliac artery rings constricted with phenylephrine. The class given is cell-based. The conditions noted are these: for EC50: Oryctolagus cuniculus. The procedure:
Isolated Ring Preparations. Male New Zealand white rabbits (2-2.5 kg) were sacrificed with sodium pentobarbitone (120 mg/kg; i.v.) and the iliac artery removed and transferred to cold Holman's buffer of the following composition (mM): 120 NaCl, 5 KCl, 2.5 CaCl2, 1.3 NaH2PO4, 25 NaHCO3, 11 glucose, and 10 sucrose. […] Endothelium-intact rings were incubated for 40 min with N^G-nitro-L-arginine methyl ester (L-NAME, 300 μM) and indomethacin (10 μM) and following constriction with phenylephrine (PE) cumulative concentration-relaxation curves to ACh or A23187 were constructed. Some preparations were preincubated for 40 min with either 2′5′-dideoxyadenosine (2′5′-DDA, 200 μM), 3-isobutyl-1-methylxanthine (IBMX, 20 μM), 18α-GA (100 μM), glibenclamide (10 μM), the combination of charybdotoxin (100 nM) and apamin (300 nM), or the combination of charybdotoxin (100 nM), apamin (300 nM) and IBMX (20 μM). Concentration-response curves to ACh and A23187 were also constructed for endothelium-denuded rings in the absence/presence of IBMX (20 μM). In experiments with IBMX the concentration of PE used to induce tone was increased from 1 to 3 μM. All reagents were obtained from Sigma, U.K.
as §1

In experiment [3] the test system is smooth muscle cAMP levels. The experiment in a line: Radioimmunoassay of cAMP in iliac artery rings. The experiment is classed as cell-based, rabbit. As to the method:
as §2

Read-outs that look alike come from different tables or passages of the source.

For the compound `CCCCC/C=C\C/C=C\C/C=C\CC1OC1CCCC(=O)O` (centres unmarked) [5,6-EET], the “Relaxation of rabbit arteries by EET regioisomers” value in the experiment on rabbit arteries is on record as “evokes relaxations”.

As to `CNc1ccc2oc(C[C@H]3O[C@@]4(CC[C@H]3C)O[C@H]([C@H](C)C(=O)c3ccc[nH]3)[C@H](C)C[C@H]4C)nc2c1C(=O)O` [A23187], in experiment [1] (L-NAME 300 μM + indomethacin 10 μM, no modulator), the “Maximal EDHF-type relaxation in sandwich preparations, % of PE-induced tone” value is given as 52.0±8.0%. Besides, the EC50 was 240 ± 40 nM in experiment [1] (Oryctolagus cuniculus, read-out: EC50 of relaxation in sandwich preparations); 291 ± 128 nM in experiment [2] (read-out: EC50 of A23187 relaxation (control of charybdotoxin/apamin series)); 328 ± 123 nM in experiment [2] (endothelium-intact rings, L-NAME + indomethacin, control of IBMX / 2′,5′-DDA series, read-out: EC50 of EDHF-type relaxation (control)). Further, the “Effect on cGMP levels” value with cGMP levels is “unaltered”. For the same compound, the “Maximal EDHF-type relaxations, % of PE-induced tone” value in experiment [2] (approximate, at concentrations ~3 μM, L-NAME 300 μM + indomethacin 10 μM) is reported as about 40%. Also, the “Relaxation after endothelial denudation” value in experiment [2] (endothelium-denuded rings) is recorded as “abolished”. In addition, the “Relaxation in endothelium-denuded rings incubated with IBMX, % of PE-induced tone” value in experiment [2] (endothelium-denuded rings, IBMX 20 μM) is 21.7±3.6%. In addition, the “Maximal EDHF-type relaxation, % of PE-induced tone (control)” value in experiment [2] (endothelium-intact rings, L-NAME 300 μM + indomethacin 10 μM, control of IBMX / 2′,5′-DDA series) came to 50.2±5.6%. The “Maximal relaxation to A23187, % of PE-induced tone (control of charybdotoxin/apamin series)” value in experiment [2] (endothelium-intact rings, L-NAME + indomethacin) is recorded as 50.0±5.8%. Besides, in experiment [3] (agonist 3 μM, endothelium-intact rings, L-NAME 300 μM + indomethacin 10 μM), the “Time of peak in cAMP levels” value lay in the range of 40 to 50 s. For the same compound, the “Change of cAMP level in endothelium-denuded preparations” value in experiment [3] (endothelium-denuded, basal 3.97±0.49 pmol/mg protein) was “did not significantly increase”. In addition, the “Increase (elevation) in smooth muscle cAMP levels” value in experiment [3] (rings incubated with L-NAME and indomethacin, endothelium-dependent) is given as 1.5 fold.
